# Literature values in patent US20260053764A1, “COMPOSITION FOR PREVENTING DETERIORATION IN COGNITIVE FUNCTION AND/OR IMPROVING COGNITIVE FUNCTION” (PHARMA FOODS INTERNATIONAL CO., LTD., priority 2020, published 2026).
# Test system: cognitive function of elderly people
# Settings: continuous ingestion for a year; cited from earlier work
row,Structure (SMILES),reasoning measured by the CNS Vital Signs examination method
1,CC1=C[C@H](O)CC(C)(C)[C@H]1/C=C/C(C)=C/C=C/C(C)=C/C=C/C=C(C)/C=C/C=C(C)/C=C/C1=C(C)C[C@@H](O)CC1(C)C [lutein],no improvement
2,CC1=C(/C=C/C(C)=C/C=C/C(C)=C/C=C/C=C(C)/C=C/C=C(C)/C=C/C2=C(C)C[C@@H](O)CC2(C)C)C(C)(C)C[C@H](O)C1 [zeaxanthin],no improvement
